Test results reported in patent publication US20220304945A1, “METHODS OF TREATING METABOLIC SYNDROME RELATED CONDITIONS USING RETINOIC ACID RECEPTOR AGONISTS” (Cornell University, priority 2014, published 2022).

test system: mouse ES cells (RARβ, Cyp26a1 transcripts); experiment: RT-PCR of RA-responsive genes in WT and RARβ KO ES cells; type: cell-based; conditions: WT ES cells, presence of RA vs untreated
Description: C57BL/6 RARβ heterozygous mice were provided by Dr. Pierre Chambon (Strasbourg-Cedex, France) (26). Homozygous RARβ-null mice were obtained following mating of RARβ heterozygous mice. Blastocysts were harvested on day E3.5 and individually cultured on ES cell medium as previously described (28).
Various markers for endodermal (day 5), pancreatic progenitor (day 11), endocrine progenitor (day 14) and endocrine (day 17) differentiation were analyzed by semi-quantitative RT-PCR in J1 wild-type and RARβ KO ESCs. Primers were designed around introns whenever possible. Total RNA extraction, semi-quantitative and quantitative PCR reactions were performed as previously described (18). Amplified PCR products were resolved on 1.5% agarose gels and visualized by staining with ethidium bromide. PCR bands were sequenced for verification of the correct amplicon. Quantitation of semi-quantitative gels was performed using ImageJ software (National Institutes of Health) from three experimental biological repeats.

| SMILES | RARβ signal (RT-PCR) |
| --- | --- |
| CC1=C(/C=C/C(C)=C/C=C/C(C)=C/C(=O)O)C(C)(C)CCC1 [RA, all trans-retinoic acid] | stronger RARβ signal |

same assay, conditions: WT and RARβ KO ES cells, RA-treated

| SMILES | Cyp26a1 expression (RT-PCR) |
| --- | --- |
| CC1=C(/C=C/C(C)=C/C=C/C(C)=C/C(=O)O)C(C)(C)CCC1 [RA, all trans-retinoic acid] | observed in both WT and RARβ KO ES cells |

target: T1, RARβ2 (Homo sapiens, UniProt P10826); experiment: not given; set-up: expressed in transfected cells; conditions: from Table 1 and Table 2 of WO2007/009083; cited from earlier work
T1 sequence (P10826 1-448 isoform P10826-2): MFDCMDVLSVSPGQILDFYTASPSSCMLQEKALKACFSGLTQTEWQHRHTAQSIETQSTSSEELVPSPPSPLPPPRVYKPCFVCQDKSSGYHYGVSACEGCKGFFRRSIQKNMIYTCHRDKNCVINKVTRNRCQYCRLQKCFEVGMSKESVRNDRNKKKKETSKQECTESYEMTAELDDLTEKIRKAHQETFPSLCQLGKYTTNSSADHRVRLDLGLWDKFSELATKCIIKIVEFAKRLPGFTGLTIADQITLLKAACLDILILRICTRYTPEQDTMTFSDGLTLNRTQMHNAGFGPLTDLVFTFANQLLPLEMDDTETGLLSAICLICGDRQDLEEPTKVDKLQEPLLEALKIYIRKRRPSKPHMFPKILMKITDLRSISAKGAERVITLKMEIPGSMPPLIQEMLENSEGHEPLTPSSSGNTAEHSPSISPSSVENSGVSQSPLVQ

| SMILES | % Eff. | pEC50 |
| --- | --- | --- |
| CCCCCCCCOc1ccc(-c2ccc(C(=O)O)cc2)cc1 [Compound 32] | 70% | – |
| CCCCCCc1ccc(-c2ccc(C(=O)O)cc2)cc1 [Compound 16] | 37% | – |
| CCCCCCCc1ccc(-c2ccc(C(=O)O)cc2)cc1 [Compound 10] | 64% | – |
| CCCC1CCCC(c2ccc(-c3ccc(C(=O)O)cc3)cc2)CC1 (stereo not drawn) [Compound 49] | 59% | – |
| O=C(O)c1ccc(-c2ccc(OCCC=C(C3CC3)C3CC3)cc2)cc1 [Compound 47] | 58% | – |
| CCCOCCOc1nc(-c2ccc(C(=O)O)cc2)sc1C [Compound 33] | 98% | – |
| CCCCCCCc1ccc(-c2ccc(C(=O)NCCc3ccccn3)cc2)cc1 [Compound 59] | 35% | – |
| CCCCCCCCOc1ccc(-c2ccc(C(=O)NCCc3ccccn3)cc2)cc1 [Compound 54] | 39% | – |
| CCCCOCCOc1nc(-c2ccc(C(=O)O)cc2)sc1C [Compound 27] | 95% | – |
| CCCCCCCCOc1ccc(-c2ccc(C(=O)NCCC#N)cc2)cc1 [Compound 51] | 59% | – |
| CCCCCCCc1ccc(-c2ccc(C(=O)O)cc2)cc1 [Compound 9] | 76% | – |
| CCCCNC(=O)COc1nc(-c2ccc(C(=O)O)cc2)sc1C [Compound 62] | 37% | – |
| CCCCCCCc1ccc(-c2ccc(C(=O)NO)cc2)cc1 [Compound 37] | 49% | – |
| Cc1sc(-c2ccc(C(=O)O)cc2)nc1OCC(=O)NC1CCC(C)CC1 (stereo not drawn) [Compound 58] | 66% | – |
| CCCCCCCCc1ccc(-c2ccc(C(=O)O)cc2)cc1 [Compound 35] | 83% | – |
| CCCCCCCCc1ccc(-c2ccc(C(=O)Nc3ccc(C)cn3)cc2)cc1 [Compound 29] | 78% | – |
| CCCCCCCCc1ccc(-c2ccc(C(=O)O)c(C)c2)cc1 [Compound 55] | 84% | – |
| CCCCCCCCc1ccc(-c2ccc(C(=O)O)cc2F)cc1 [Compound 38] | 70% | 6.81 |
| CCCCCCCCN1CCN(c2ccc(C(=O)O)cc2)CC1 [Compound 50] | 85% | – |
| CCCCCCCCc1ccc(-c2ccc(C(=O)n3ccnc3)cc2)cc1 [Compound 8] | 79% | 7.66 |
| CCCCCCCCCCOc1ccc(-c2ccc(C(=O)O)cc2)cc1 [Compound 20] | 98% | – |
| CCCCC(CC)COc1nc(-c2ccc(C(=O)O)cc2)sc1C (stereo not drawn) [Compound 46] | 54% | – |
| CCCCCCCc1ccc(-c2ccc(C(=O)NN)cc2)cc1 [Compound 45] | 78% | – |

| SMILES | % Eff. | pEC50 |
| --- | --- | --- |
| CCCCCCCCc1ccc(-c2ccc(C(=O)O)cc2)cc1 [Compound 53] | 99% | – |
| CCCCCCCCc1ccc(-c2ccc(C(=O)O)cc2)cc1 [Compound 6] | 104% | – |
| CCCCOCCOc1cc(C)c(-c2ccc(C(=O)O)cc2)cc1C [Compound 44] | 41% | – |
| CC(C)CCCCOc1ccc(-c2ccc(C(=O)O)cc2)cc1 [Compound 25] | 65% | – |
| CCCCCCCCCc1ccc(-c2ccc(C(=O)O)cc2)cc1 [Compound 2] | 126% | – |
| CCCCc1ccc(-c2ccc(C(=O)O)cc2)cc1 [Compound 26] | 36% | 7.15 |
| CCCCCCOc1ccc(-c2ccc(C(=O)O)cc2)cc1 [Compound 12] | 72% | – |
| CCCCCCOc1cc(C)c(-c2ccc(C(=O)O)cc2)cc1C [Compound 11] | 78% | – |
| CCCCCc1ccc(-c2ccc(C(=O)O)cc2)cc1 [Compound 4] | 44% | – |
| CCCCCCCCc1ccc(-c2ccc(C(=O)n3cnc(NC(C)=O)n3)cc2)cc1 [Compound 15] | 76% | – |
| CCCCOCCOc1ccc(-c2ccc(C(=O)O)cc2)cc1 [Compound 18] | 108% | – |
| Cc1sc(-c2ccc(C(=O)O)cc2)nc1OCC(=O)NC1CCCCCC1 [Compound 56] | 105% | – |
| CCCCCCc1ccc(-c2ccc(C(=O)Nc3ccc(C)cn3)cc2)cc1 [Compound 63] | 36% | – |
| CCCCCCCCc1ccc(-c2ccc(C(=O)C(=O)O)cc2)cc1 [Compound 31] | 80% | – |
| CCCCCCCc1ccc(-c2ccc(C(=O)O)cc2F)cc1 [Compound 22] | 36% | – |
| Cc1sc(-c2ccc(C(=O)O)cc2)nc1OCC(=O)NC(C)CCC(C)C (stereo not drawn) [Compound 57] | 77% | – |
| CCCCCCNC(=O)COc1nc(-c2ccc(C(=O)O)cc2)sc1C [Compound 13] | 85% | – |
| Cc1sc(-c2ccc(C(=O)O)cc2)nc1OCC(=O)NC1CCCC1 [Compound 61] | 39% | – |
| CCCCCCCc1ccc(-c2ccc(C(=O)O)c(F)c2)cc1 [Compound 36] | 42% | – |
| CCCCCCCc1ccc(-c2ccc(C(=O)O)c(C)c2)cc1 [Compound 52] | 45% | 6.41 |
| CCCCCCCOc1ccc(-c2ccc(C(=O)O)cc2)cc1 [Compound 24] | 58% | – |
| CCCCCCCCc1ccc(-c2ccc(C(=O)NS(C)(=O)=O)cc2)cc1 [Compound 60] | 51% | – |
